Test results: PMC9317481, “Design and Synthesis of New Hydantoin Acetanilide Derivatives as Anti-NSCLC Targeting EGFR^L858R/T790M Mutations” (Pharmaceuticals, 2022)

Assays:
[1] = tested on: PC9 cells; experiment: MTT antiproliferative assay, PC9; conditions: Homo sapiens, PC-9, read-out: IC50 (µM) PC9
[2] = tested on: A549 cells; experiment: MTT antiproliferative assay, A549; conditions: Homo sapiens, A549, read-out: IC50 (µM) A549
[3] = tested on: H1975 cells; experiment: MTT antiproliferative assay, H1975; conditions: Homo sapiens, NCI-H1975, read-out: IC50 (µM) H1975
[4] = tested on: A549, H1975, and PC9 cell lines; experiment: MTT antiproliferative assay, average of the three NSCLC cell lines; conditions: Homo sapiens, read-out: IC50 (µM) Average
[5] = tested on: Akt; experiment: Akt enzyme assay (Phospho-Ser473 ELISA) in A549 cells; assay type: cell-based, human; conditions: read-out: Enzymatic Inhibition, IC50, (nM) Akt
Procedure: Akt expression level was assayed using the Phospho Sandwich Akt (Phospho-Ser473) ELISA Kit (Cat. # MBS9511022, MyBioSource, San Diego, CA, USA) containing the components necessary for the semi-quantitative determination of Akt concentrations within experimental cell lysate samples. The assay was performed according to company protocols: the lysates were diluted with assay diluent and 100 μL/well was dispensed, wrapped with parafilm, and incubated for 2 h. They were shaken with RT or overnight at 4 °C. The plate was washed 3 times with 1× Wash Buffer 300 μL/well with a vacuum-based plate washer. Then, the plate was stricken on absorbent paper to remove as much residual liquid as possible. The Detection Antibody was diluted to 1× and 100 μL/well was dispensed, wrapped with parafilm, and incubated on a shaker for 2 hrs at RT, and the washing step was repeated. Streptavidin-HRP was diluted to 1× and 100 μL/well was dispensed, wrapped with parafilm, and incubated on a shaker for 30 min at RT. Ready-to-use substrate was brought to RT and 100 μL/well was dispensed and the reaction was allowed to incubate on an orbital shaker for 20–30 min. The reaction was stopped with stop solution 100 μL/well. The wells turned from blue to yellow and were read at 450 nm.

[6] = tested on: ERK; experiment: ERK enzyme assay (ELISA) in A549 cells; assay type: cell-based, human; conditions: read-out: Enzymatic Inhibition, IC50, (nM) ERK
Procedure: ERK ELISA Kit (Cat. # E4317-100, BioVision, Inc., Waltham, MA, USA) was used for the in vitro quantitative determination of Human ERK. Firstly, the plate was washed 2 times with Wash Solution before the standard, sample, and control wells were added. A total of 100 μL of each standard or sample was added into appropriate wells. […] The cover was removed and the plate content was discarded without washing or letting the wells completely dry. A total of 0.1 mL of Biotin-detection antibody work solution was added into the above wells. […] The solution was discarded and washed 3 times with Wash Solution. It was washed by filling each well with Wash Buffer (350 μL) using a multi-channel pipette or auto-washer. It was soaked for 1–2 min, and then all residual wash-liquid was removed from the wells by aspiration. After the last wash, any remaining wash buffer was removed by aspirating or decanting. The plate was clapped on absorbent filter papers or other absorbent materials. […] The solution was discarded and washed 5 times with wash solution as mentioned before. […] A total of 50 μL of Stop Solution was added to each well. The result was read at 450 nm within 20 min.

[7] = biological target: T1, EGFR phosphorylation (Homo sapiens, UniProt P00533); experiment: Western blot of EGFR phosphorylation expression in A549 cells; assay type: cell-based
T1 construct: A549 (harbor EGFR^WT); endogenous in cells; host or cells: A549
Procedure: In addition, the obtained data were attuned to β-actin expression to exclude the deviations further.
The western blot experiment was performed according to the same procedure described earlier.

[8] = tested on: A549 cells; experiment: Cell cycle analysis by flow cytometry in A549 cells; assay type: cell-based, human; conditions: 5a at its IC50 value
Procedure: (§1) The active hydantoin derivative 5a was further investigated for its effect on cell cycle progression and the induction of apoptosis in A549 cells. Exposure of A549 cells to 5a at its IC50 value led to an interference with the normal cell cycle distribution of the cell (Figure 5). […] Meanwhile, 5a was evaluated for its ability to induce apoptosis in A549 cells by staining with propidium iodide and Annexin V-FITC.
(§2) Cell cycle analysis and Annexin V-FITC apoptosis assay were performed as described earlier.
Figure 5 Compound 5a arrested the cell cycle at the sub G1 and S phases in A549 cells. Representative cell cycle distribution data are shown by flow cytometric analysis upon incubation with 5a or DMSO as a negative control for 24 h.

[9] = tested on: A549 cells; experiment: Annexin V-FITC/propidium iodide apoptosis assay in A549 cells; assay type: cell-based, human; conditions: IC50 concentration
Procedure: as §1, §2
Figure 6 Apoptotic effect of compound 5a on A549 cells. Representative cytograms of apoptotic A549 cells stimulated with 5a or DMSO as a negative control for 24 h. TEXT PRINTED IN THE PICTURE: Control: Necrosis 0.94%; Late apoptosis 0.26%; Early apoptosis 0.41% | 5a: Necrosis 11.59%; Late apoptosis 19.89%; Early apoptosis 3.77%

[10] = tested on: A549 cells; experiment: Wound healing assay in A549 cells; assay type: cell-based, human; conditions: 0.5, 1 or 2 µM, 72 h
Procedure: Various articles have highlighted the role of EGFR in the migration of tumor cells. Accordingly, the migratory effects of 5a in A549 cells were assessed using a wound healing assay.
Wound healing assay of 5a was performed using CytoSelect™ 24-well Wound Healing Assay kit (Cat. # CBA-120, Cell Biolabs Inc., Cambridge, UK) per manufacturer’s instructions. In brief, the 24-well plate wound healing inserts were allowed to warm up at room temperature for 10 min., then to each well, 500 µL of A549 cells suspension ([…]) in media containing 10% fetal bovine serum (FBS) was added. Cells were kept in a cell culture incubator until a monolayer formed. Carefully, the insert was removed from the well. The media were slowly aspirated and discarded from the wells. The wells were washed with media to remove dead cells and debris. Finally, the media were added to wells to keep cells hydrated, then wells were visualized under a light microscope. Media containing the indicated concentrations of compound 5a (0.5, 1, or 2 µM) were then added into the wells for 72 h. the wound closure was monitored with a light microscope. The percent closure of the cells into the wound field was measured.

[11] = biological target: EGFR^L858R (Homo sapiens, UniProt P00533, L858R); experiment: EGFR kinase assay (L858R)
[12] = biological target: EGFR^T790M (Homo sapiens, UniProt P00533, T790M); experiment: EGFR kinase assay (T790M)
[13] = biological target: EGFR^WT (Homo sapiens, UniProt P00533); experiment: EGFR kinase assay (wild type)
[14] = tested on: WI-38 normal cells; experiment: MTT cytotoxicity on normal fibroblast WI-38 cells; conditions: for IC50: Homo sapiens, WI-38, read-out: WI-38, IC50 (µM); for fold superior to the reference erlotinib on WI-38: ratio of WI-38 IC50 versus erlotinib
Procedure: The new prepared candidates 5a–5n were evaluated for their antitumor activities against four selected cell lines, the adenocarcinomic human alveolar basal epithelial cells NCI-A549, NCI-H1975, human pulmonary adenocarcinoma PC9, and the fibroblast-like fetal lung cells WI-38 (purchased from American Type Culture Collection (ATCC), United States of America), using an MTT assay [26], as described earlier [27].

[15] = A549 cells treated by 5a, Western blot

| Compound | melting point [°C] | IC50 [1] [µM] | IC50 [2] [µM] | IC50 [3] [µM] | IC50 [4] [µM] | further results |
| --- | --- | --- | --- | --- | --- | --- |
| COc1ccc(NC(=O)CN2C(=O)NC(C)(c3ccccc3)C2=O)c(C)c1 (stereo not shown) [5j, N-(4-methoxy-2-methylphenyl)-2-(4-methyl-2,5-dioxo-4-phenylimidazolidin-1-yl)acetamide] | 143 to 146 | 9.97 ± 1.08 | 4.11 ± 0.26 | 30.9 ± 1.68 | 15 | – |
| CC1(c2ccccc2)NC(=O)N(CC(=O)Nc2ccc(F)c(Cl)c2)C1=O (stereo not shown) [5k, N-(3-chloro-4-fluorophenyl)-2-(4-methyl-2,5-dioxo-4-phenylimidazolidin-1-yl)acetamide] | 170 to 173 | 3.25 ± 0.35 | 68.6 ± 4.32 | 5.84 ± 0.32 | 25.9 | – |
| CC1(c2ccccc2)NC(=O)N(CC(=O)Nc2ccc(S(N)(=O)=O)cc2)C1=O (stereo not shown) [5b, N-(4-aminosulphonylphenyl)-2-(4-methyl-2,5-dioxo-4-phenylimidazolidin-1-yl)acetamide] | 122 to 125 | 5.12 ± 0.56 | 14.5 ± 0.92 | 8.2 ± 0.45 | 9.29 | – |
| COc1ccc(NC(=O)CN2C(=O)NC(C)(c3ccccc3)C2=O)cc1OC (stereo not shown) [5a, N -(3,4-dimethoxyphenyl)-2-(4-methyl-2,5-dioxo-4-phenylimidazolidin-1-yl)acetamide] | – | 10.2 ± 0.53 | 2.26 ± 0.12 | 1.94 ± 0.25 | 4.79 | IC50 [5]: 33.8 ± 0.55 nM; IC50 [6]: 25.8 ± 41 nM; OD (EGFR) [7, 15]: 0.79; OD (pEGFR) [7, 15]: 0.33; fold decrease in expression level of EGFR phosphorylation compared to control ([7]; A549 cells, 0.03 µM of 5a, normalised to β-actin): 2.5 fold; boost of cells at pre-G1 compared to the control [8]: 22 folds; cells at S phase ([8]; 24 h): 40.40%; cells at sub G1 phase ([8]; 24 h): 35.25%; elevation of early apoptotic cells compared to the negative control [9]: 77 folds; elevation of late apoptotic cells compared to the negative control [9]: 9 folds; Early apoptosis ([9]; 24 h): 3.77%; Late apoptosis ([9]; 24 h): 19.89%; Necrosis ([9]; 24 h): 11.59%; wound closure and migration of A549 cells [10]: reduced the wound closure and the migration of A549 cells substantially in a dose-dependent manner; IC50 [11]: 0.05 ± 0.001 µM; IC50 [12]: 0.09 ± 0.002 µM; IC50 [13]: 0.03 ± 0.005 µM; IC50 [14]: 49.3 ± 2.75 µM; fold superior to the reference erlotinib on WI-38 [14]: 2.6 fold |
| CC1(c2ccccc2)NC(=O)N(CC(=O)Nc2ccc(F)cc2)C1=O (stereo not shown) [5e, N-(4-fluorophenyl)-2-(4-methyl-2,5-dioxo-4-phenylimidazolidin-1-yl)acetamide] | 226 to 228 | 2.52 ± 0.27 | 7.19 ± 0.45 | 9.34 ± 0.51 | 6.35 | – |
| CC1(c2ccccc2)NC(=O)N(CC(=O)Nc2ccc(F)c(F)c2)C1=O (stereo not shown) [5h, N-(3,4-difluorophenyl)-2-(4-methyl-2,5-dioxo-4-phenylimidazolidin-1-yl)acetamide] | 195 to 198 | 15.4 ± 1.67 | 11.9 ± 0.75 | 21.3 ± 1.16 | 16.2 | – |
| COc1ccc(NC(=O)CN2C(=O)NC(C)(c3ccccc3)C2=O)cc1Cl (stereo not shown) [5c, N-(3-chloro-4-methoxyphenyl)-2-(4-methyl-2,5-dioxo-4-phenylimidazolidin-1-yl)acetamide] | 163 to 166 | 21.3 ± 2.31 | 91.4 ± 5.75 | 55.3 ± 3.01 | 56 | – |
| CC1(c2ccccc2)NC(=O)N(CC(=O)Nc2cccc(F)c2)C1=O (stereo not shown) [5g, N-(3-fluorophenyl)-2-(4-methyl-2,5-dioxo-4-phenylimidazolidin-1-yl)acetamide] | 182 to 185 | 11.5 ± 1.25 | 37.6 ± 2.37 | 6.84 ± 0.37 | 18.7 | – |
| CC1(c2ccccc2)NC(=O)N(CC(=O)Nc2ccc(F)c(F)c2F)C1=O (stereo not shown) [5i, N-(2,3,4-trifluorophenyl)-2-(4-methyl-2,5-dioxo-4-phenylimidazolidin-1-yl)acetamide] | 205 to 210 | 6.06 ± 0.35 | 0.73 ± 0.05 | 14 ± 0.76 | 6.93 | – |
| COc1ccc(C)cc1NC(=O)CN1C(=O)NC(C)(c2ccccc2)C1=O (stereo not shown) [5d, N-(2-methoxy-5-methylphenyl)-2-(4-methyl-2,5-dioxo-4-phenylimidazolidin-1-yl)acetamide] | 170 to 173 | 7.5 ± 0.81 | 35.8 ± 2.26 | 11.9 ± 0.65 | 18.4 | – |
| COc1cccc(NC(=O)CN2C(=O)NC(C)(c3ccccc3)C2=O)c1 (stereo not shown) [5n, N-(3-methoxyphenyl)-2-(4-methyl-2,5-dioxo-4-phenylimidazolidin-1-yl)acetamide] | 148 to 151 | 6.87 ± 0.75 | 0.42 ± 0.03 | 18.8 ± 1.02 | 8.7 | – |
| C#Cc1cccc(Nc2ncnc3cc(OCCOC)c(OCCOC)cc23)c1 [Erlotinib, erlotinib, reference compound] | – | 16.3 ± 0.84 | 7.81 ± 0.43 | 9.7 ± 0.53 | 11.3 | IC50 [5]: 25.4 nM; IC50 [6]: 17.5 ± 0.18 nM; IC50 [14]: 18.6 ± 1.24 µM |
| CCOc1ccc(NC(=O)CN2C(=O)NC(C)(c3ccccc3)C2=O)cc1 (stereo not shown) [5l, N-(4-ethoxyphenyl)-2-(4-methyl-2,5-dioxo-4-phenylimidazolidin-1-yl)acetamide] | 153 to 155 | 6.69 ± 0.73 | 2.37 ± 0.15 | 43.8 ± 2.39 | 17.6 | – |
| COc1ccccc1NC(=O)CN1C(=O)NC(C)(c2ccccc2)C1=O (stereo not shown) [5m, N-(2-methoxyphenyl)-2-(4-methyl-2,5-dioxo-4-phenylimidazolidin-1-yl)acetamide] | 85 to 90 | 28.3 ± 3.08 | 12.3 ± 0.78 | 2.27 ± 0.12 | 14.3 | – |
| CC1(c2ccccc2)NC(=O)N(CC(=O)Nc2ccccc2F)C1=O (stereo not shown) [5f, N-(2-fluorophenyl)-2-(4-methyl-2,5-dioxo-4-phenylimidazolidin-1-yl)acetamide] | 153 to 155 | 4.4 ± 0.48 | 1.94 ± 0.12 | 1.38 ± 0.07 | 2.57 | IC50 [11]: 0.17 ± 0.003 µM; IC50 [12]: 0.26 ± 0.005 µM; IC50 [13]: 0.06 ± 0.011 µM; IC50 [14]: 42.5 ± 2.32 µM; fold superior to the reference erlotinib on WI-38 [14]: 2.3 fold |
